Test results: US7582424B2 (priority 2000, dated 2009)

Columns and labels:
[1] = system: Ace-induced Isc response by T84 cell monolayers; assay: cells; format: cell-based, human
[2] = system: ACE-stimulated Isc in 16HBE14o- cell monolayers; format: cell-based, human
[3] = system: polarized T84 cells; details: cited from earlier work
[4] = system: T84 cell monolayers; format: cell-based, human
[5] = system: cAMP; format: cell-based
[6] = system: cGMP; format: cell-based
[7] = system: chloride secretion; details: cited from earlier work

## CC(=O)OCOC(=O)CN(CC(=O)OCOC(C)=O)c1ccccc1OCCOc1ccccc1N(CC(=O)OCOC(C)=O)CC(=O)OCOC(C)=O [BAPTA, 1,2-bis(2-aminophenoxy)ethane-N,N,N′,N′-tetraacetic acid (BAPTA)-AM]
[1]
  effect on Ace-induced Isc: near ablation

## O=S(=O)(O)c1cc(N=C=S)ccc1C=Cc1ccc(N=C=S)cc1S(=O)(=O)O.[Na] [DIDS, 4,4′-diisothiocyanostilbene-2,2′-disulfonic acid, sodium]
[1]; Homo sapiens, T84, read-out: inhibition of the Ace-induced Isc response
  inhibition at 500 µM: 50%
[2]
  decrease in ACE-stimulated Isc: 40%
[3]
  inhibition of forskolin-induced Isc response: 40%
  inhibition of thapsigargin-induced Isc response: 100%

## CCCCNc1cc(C(=O)O)cc(S(N)(=O)=O)c1Oc1ccccc1 [bumetanide]
[4]
  effect by itself on Isc or PD: no effect
[1]
  effect on Ace action when added after Ace: reverses
[1]; Homo sapiens, T84, read-out: inhibition of the action of Ace (Isc)
  inhibition at 100 µM: ~60%

## C[N+](C)(C)CCOC(N)=O [carbachol]
[4]
  effect of carbachol pretreatment on thapsigargin-induced chloride secretion (Isc response): blocks
  peak Isc, agent alone: 9.8±1.1 μAmp/cm^2
  return of Isc nearly to baseline: ≤ 10 min
  time of peak Isc, agent alone: 4 min
[5]
  effect on cellular cAMP: no significant effect
[6]
  effect on cellular cGMP: no significant effect

## Clc1ccccc1C(c1ccccc1)(c1ccccc1)n1ccnc1 [clotrimazole]
[1]
  reduction in Ace-stimulated Isc: 92%
[7]
  inhibition of carbachol-dependent secretion: 84%

## O=C1CN(/N=C/c2ccc(-c3ccc([N+](=O)[O-])cc3)o2)C(O)=N1 [dantrolene]
[1]; Homo sapiens, T84, read-out: inhibition of Ace-induced Isc response
  inhibition at 50 µM: ~70%

## C=C[C@@]1(C)CC(=O)[C@]2(O)[C@@]3(C)[C@@H](O)CCC(C)(C)[C@@H]3[C@H](O)[C@H](OC(C)=O)[C@@]2(C)O1 [forskolin]
[4]
  mean peak Isc, forskolin followed by carbachol: 69.3±2.4 μAmps/cm^2
  predicted additive effect, forskolin and carbachol, mean peak Isc: 49.0±2.9
[6]
  effect on cellular cGMP: no effect

## O=c1c(-c2ccc(O)cc2)coc2cc(O)cc(O)c12 [genistein]
[1]
  effect on the Isc response to Ace: no effect

## C[C@@H]1O[C@@H](O[C@H]2C[C@@H](O)[C@]3(CO)[C@H]4[C@H](O)C[C@]5(C)[C@@H](C6=CC(=O)OC6)CC[C@]5(O)[C@@H]4CC[C@]3(O)C2)[C@H](O)[C@H](O)[C@H]1O [ouabain]
[1]
  effect on Ace-induced Isc: inhibits and reverses

## C/C=C(/C)C(=O)O[C@H]1C(C)=C2[C@H]([C@@H]1OC(=O)CCCCCCC)[C@@](C)(OC(C)=O)C[C@H](OC(=O)CCC)[C@@]1(O)[C@H]2OC(=O)[C@@]1(C)O [thapsigargin]
[4]
  mean peak Isc, agent alone: 10.2±4.3

## COc1ccc(CCN(C)CCCC(C#N)(c2ccc(OC)c(OC)c2)C(C)C)cc1OC (centres unmarked) [verapamil]
[1]
  effect on Ace-induced Isc response: no significant effect

## NPPB
[2]
  decrease in ACE-stimulated Isc: ~80%

## ω-conotoxin
[1]
  effect on Ace-induced Isc response: no significant effect
